# Measured values from PubChem BioAssay (NCI).
#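 Compound exposure: 48 hours, 5 concentrations, 96-well plates. TGI denotes the concentration required for complete inhibition of growth.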
# Key:
# Test in all cases: DTP human tumour cell line panel, 48 h
# [1] = system: DU-145 prostate
# [2] = system: U251 CNS
# [3] = system: PC-3 prostate
# [4] = system: ACHN renal
# [5] = system: EKVX NSCLC
# [6] = system: SK-OV-3 ovarian
# [7] = system: BT-549 breast
# [8] = system: HL-60(TB) leukemia
SMILES,TGI [1] [µM],TGI [2] [µM],TGI [3] [µM],TGI [4] [µM],TGI [5] [µM],TGI [6] [µM],TGI [7] [µM],TGI [8] [µM]
CCCSc1ccc2[nH]c(N3C(=O)/C(=C/c4ccc(SC)cc4)N=C3c3ccccc3)cc2c1,> 50,> 50,> 50,> 50,> 50,> 50,> 50,24.8
O=C(NNC(=S)NC1CCCCC1)C12CC3CC(CC(C3)C1)C2,> 100,> 100,> 100,> 100,,> 100,> 100,> 100
N[C@@H]1CCN(c2c(F)cc3c(=O)c(C(=O)O)cn4c3c2Oc2cc3c(ccc5ccccc53)cc2-4)C1,> 100,5.04,> 28.2,> 41.7,,,> 100,> 59.9
C=C1C(=O)O[C@H]2C1C[C@@H](OC(C)=O)/C(C)=C/CC[C@@]1(C)O[C@H]21 (stereo partly drawn),27.8,> 100,31.3,15.2,35.2,64,19,
CCOC(=O)c1nc2cc(C(F)(F)F)ccc2nc1Nc1ccc(C(=O)OC)s1,> 100,> 100,> 100,> 100,> 100,> 100,74.6,> 100
Cc1cc(=O)oc2cc(OCC(O)COC(C)C)ccc12 (stereo not drawn),> 100,> 100,> 100,> 100,> 100,> 100,,> 100
O=C1CCc2ccc(O)c(c2)Oc2ccc(cc2)C(Sc2ccccc2)CCO1 (stereo not drawn),46.6,33,35.1,32.1,28.5,> 100,28.7,> 100
CCOC(=O)/C(=N/Nc1ccccc1)N1C(=S)C=C(C)NN(C)C1=S,> 100,50.9,,> 100,> 100,> 100,> 100,> 100
Cc1c(N=C/C=C/c2ccccc2)c(=O)n(-c2ccccc2)n1C,> 100,73.3,> 100,> 100,81.8,> 100,58.1,48.2
COc1ccc2c(c1)/C(=C\c1c(Cl)[nH]c3ccccc13)C(=O)N2,56.7,13.2,18,20.8,18.5,9.87,14.8,10.8
CC(=O)OCC1OC(n2c3c(c(-c4ccc(Cl)cc4)c(C#N)c2=S)CCCC3)C(OC(C)=O)C(OC(C)=O)C1OC(C)=O (stereo not drawn),> 100,> 100,69.1,> 100,,> 100,,> 100
CC(C)CC(N)C(=O)Nc1ccc2ccccc2c1 (stereo not drawn),> 100,> 100,> 100,> 100,> 100,> 100,> 100,> 100
COC(=O)c1cc(NC(=O)Cc2c[nH]c3ccccc23)cn1C,> 100,> 100,> 100,> 100,> 100,> 100,> 100,> 100
COc1ccc2c(c1)CCCN1CCc3ccccc3C21 (stereo not drawn),> 100,95.4,> 100,> 100,> 100,> 100,,43.3
COc1cccc(/C=C2\S/C(=N/Nc3nc(C)c(C)s3)NC2=O)c1O,> 100,> 100,,> 100,> 100,> 100,> 100,> 100
CCCCCc1c(CCCC)c(=O)[nH]c2nc(NC(=O)CCCC)ccc12,,> 100,> 100,> 100,> 100,> 100,> 100,
COc1ccc(-c2c3c(n(C4OC(CO)C(O)C(O)C4O)c(=S)c2C#N)CCCC3)cc1 (stereo not drawn),,,> 100,> 100,> 100,> 100,,> 100
O=C1CC(CC(=O)c2ccc(Br)cc2)C(=O)/C1=C(/O)c1ccc(Br)cc1 (stereo not drawn),> 100,> 100,> 100,> 100,> 100,> 100,,> 100
NC1CCC(N(CC(=O)O)CC(=O)O)C(N(CC(=O)O)CC(=O)O)C1 (stereo not drawn),> 100,> 100,> 100,> 100,,> 100,> 100,> 100
CC(Nc1ccc(Cl)c(Cl)c1)c1ccncc1 (stereo not drawn),89.7,46.2,75.2,> 100,> 100,29.3,86.3,
CC(=O)NC(NCCN)(c1ccccc1)c1ccccc1,> 100,> 100,,> 100,> 100,> 100,,> 100
CCOC(=O)c1c(NC(=S)Nc2ccc(Cl)cc2)sc2c1CCN(C)C2,> 100,,> 100,> 100,> 100,,> 100,> 100
Fc1ccc2c3c([nH]c2c1)CCN(Cc1ccccc1)C3,70.9,37.1,,47.3,48.7,39.5,,37.6
C=CC1CN(C(=O)OCC)N(C(=O)OCC)C1CCc1ccccc1 (stereo not drawn),> 100,> 100,> 100,> 100,> 100,> 100,,> 100
COc1ccc(OC)c2c1C=CC(Br)=CC2,> 1,> 1,> 1,> 1,> 1,0.358,0.835,
CC(=O)O[C@H]1C(=O)[C@@]2(C)[C@H]([C@H](OC(=O)c3ccccc3)[C@]3(O)C[C@H](OC(=O)[C@H](O)[C@@H](NC(=O)c4ccco4)c4ccccc4)C(C)=C1C3(C)C)[C@]1(OC(C)=O)CO[C@@H]1C[C@@H]2O,> 12.5,> 12.5,> 12.5,> 12.5,> 12.5,0.0107,,< 0.00125
[B-][P+](CC[P+]1([B-])[C@@H](C)[C@@H](O)[C@H](O)[C@@H]1C)(c1ccccc1)c1ccccc1OC (stereo partly drawn),33.7,30.6,35.6,31.6,25,37.6,,54
